Laboratory results published in patent publication US20180250306A1, “ALDEHYDE CONJUGATES AND USES THEREOF” (ALDEYRA THERAPEUTICS, INC., priority 2015, published 2018).

Columns and labels:
[1] = Consumption of 4HNE over time (HPLC, 254 nm)
From the text: 5 of 6 samples show consumption of 4HNE. One sample (2-(3-aminoquinolin-2-yl)propan-2-ol) overlaps 4HNE HPLC peak using current method. Best fit lines over this period give poorer fit to data than product formation data. Rate of 4HNE consumption can be used as an approximation of binding kinetics. […] The data were used to rank relatively each of the samples examined, including NS-2 but excluding 2-(3-aminoquinolin-2-yl)propan-2-ol.

[2] = tested on: α-SMA; experiment: Western Blot of α-SMA in cardiac fibroblasts; format: cell-based, neonatal rats; settings: for α-SMA level (Western Blot): H2O2 stimulated cardiac fibroblasts
Method: Thirty hearts from neonatal rats were minced and digested (Neonatal Cardiomyocyte Isolation System, LK003303, Worthington). After tissue digestion and cell dissociation, cell suspensions were plated into 35 mm dishes or onto coverslips in wells of 24-well plates. Serum-free DMEM was added to the cell suspensions and the cells allowed to adhere for 2 hrs. After two hours, the cell suspension was removed and the adherent cells were fed with DMEM containing 10% fetal bovine serum (FBS). Cells were maintained in DMEM+10% FBS for 24 hours before treatments. Treatment duration was 24 hours.
Cell samples were divided in to 2 groups, stimulated with H2O2 or not stimulated with H2O2. […] The cells that were treated with H2O2 contained a final concentration of 0.001% in the wells. Drug was dissolved in 9.5% Captisol®, to a stock concentration of 5 mg/ml. […] Cells were treated for 24 hours then either fixed for immunostaining or collected as lysates for Western Blot analysis.
Whole cell lysates were used for Western blotting; nuclear and cytosolic fractions were not prepared. DMEM from cells plated in 35 mm plates was removed, the cells rinsed quickly in PBS, then incubated in 500 ul cold RIPA buffer for 20-30 minutes at 4° C. under gentle rocking. Following RIPA incubation, cells were scraped from the dish using cell scrapers and frozen at −80° C. overnight to increase cell lysing. Once thawed, cells were sonicated for 1 minute at 80% maximal power (Biologics Model 150 B/T). Samples were centrifuged at 13K for 10 min at 4° C. then supernatant was separated from pellet for analysis by gel electrophoresis. BCA protein analysis was run to determine total protein, samples normalized to 0.2 ug/uL, and then loaded onto Novex 8% Bolt gels. Gels were run for 35 min at 200 V in MOPS buffer or until the lower molecular weight band reached the bottom of the gel. Protein was then transferred to Hybond 0.45 uM Nitrocellulose (GE Healthcare) for 1 hour. Blots were blocked for 1 hr at room temperature in 5% BSA/TBSt. […]

[3] = tested on: SSADH null mice; experiment: Eight-hour NS2 treatment (metabolite) study in wild type and SSADH null mice; format: in vivo
From the text: Mice were 22-23 days old on the day of treatment, and groups (n=3) were balanced for age and gender. […] Future studies in this model will encompass a dose-finding paradigm to ensure adequate target exposure; dose earlier in life; and increase group sizes.
The design of the study was as follows: • Treatment groups were balanced for date of birth, gender, and weight. • SSADH null mice were generated by crossing mice heterozygous for SSADH deficiency. Expected number of null progeny is 1 in 4. Seven SSADH null mice were generated from this breeding, of which three were assigned to group 3 and four were assigned to group 4.
• On the day of dosing, NS2 and vehicle were brought to room temperature. […] This working solution was prepared at room temperature, using aseptic technique in the animal dosing suite, and was used within one hour of preparation. • Dosing volume was ˜0.4 μL/g body weight for both mutant and wild-type subjects (note: the average body weight for the SSADH null mice is ˜4.9±0.9 g, and that of age-matched wild-type littermate is 10.2±0.9 g). DMSO total dose is weight normalized. • Leftover working solutions were discarded.
Organs were snap frozen in liquid nitrogen for biochemical analysis and stored at −80° C. • A terminal cardiac blood sample was obtained in a standard microtainer for serum collection. Serum was prepared by centrifugation for 10 minutes at […] (2500×g) and stored at −80° C. until analyses. […]
Plasma and tissue homogenates were shipped to the laboratory of Professor Gajja Salomons (VU Medical Center, Amsterdam, the Netherlands) on May 11, 2015. SSA, GHB and D2HG levels were assayed in the Salomons laboratory using the following published methods: 1) “Stable isotope dilution analysis of 4-hydroxybutyric acid: an accurate method for quantification in physiological fluids and the prenatal diagnosis of 4-hydroxybutyric aciduria,” Gibson et al., 1990, Biomed Environ Mass Spectrom. […]

[4] = SSADH null mice, 8 hours after single 10 mg/kg i.p.

CC(C)(O)c1nc2ccc(Cl)cc2cc1N [NS2, 2-(3-amino-6-chloroquinolin-2-yl)propan-2-ol]
Gradient of 4HNE consumption ([1]; 23 h): (Gradient −0.04,
Gradient of 4HNE consumption ([1]; first 7 h, analysis at 254 nm): (Gradient −0.15,
Consumption of 4HNE, ranking, 7 Hours ([1]; rank from most effective (1) to least): 1
Consumption of 4HNE, ranking, 23 Hours ([1]; rank from most effective (1) to least, ranks 1-4 essentially identical): 3
α-SMA level (Western Blot) ([2]; 10 μM): no significant change
α-SMA level (Western Blot) ([2]; increased dose (100 μM, 1 mM), p<0.01): further α-SMA decreases, which were significant
α-SMA level (Western Blot) compared to control ([2]; non-stimulated cardiac fibroblasts, 10 μM, 100 μM, 1 mM): significant decreases
GHB and D-2-HG in liver [3, 4]: tendency for decrease
change in levels of metabolites (GHB, SSA, D-2-HG) [3, 4]: no statistically significant changes
tolerability ([3]; mouse, in vivo, ip, 10 mg/kg): well-tolerated
